Measured values: PMC10174317, “^18F-labeled FGFR1 peptide: a new PET probe for subtype FGFR1 receptor imaging” (Frontiers in Oncology, 2023)
Primed or numbered codes have the meaning given here. Where no end group is shown, it is not given here. The star is where a group is joined. NOTA = O=C(O)CN1CCN(CC(=O)O)CCN(CC(=O)*)CC1; PEG2′ = not defined here

T1: FGFR1 (Homo sapiens, UniProt P11362)
T1 chain: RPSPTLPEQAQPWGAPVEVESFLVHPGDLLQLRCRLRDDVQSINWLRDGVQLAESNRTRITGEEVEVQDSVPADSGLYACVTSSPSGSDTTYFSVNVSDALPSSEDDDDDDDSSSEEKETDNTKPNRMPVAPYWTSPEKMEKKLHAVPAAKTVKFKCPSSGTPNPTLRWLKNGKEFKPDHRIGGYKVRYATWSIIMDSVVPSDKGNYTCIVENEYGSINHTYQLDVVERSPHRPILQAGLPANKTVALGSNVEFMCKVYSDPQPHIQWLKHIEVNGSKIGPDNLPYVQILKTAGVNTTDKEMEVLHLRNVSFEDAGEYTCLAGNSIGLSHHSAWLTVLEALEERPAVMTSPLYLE


Legend:
[1] = tested on: FGFR1; settings: preclinical studies; higher affinity for FGFR1 than for other FGFR subtypes; cited from earlier work
Excerpt: To assess FGFR aberration status, tissue specimens generally need to be collected via invasive procedures, such as surgery or biopsy. These approaches may be limited by heterogeneity, tumor stage, the invasiveness of the procedure, long operating time and the functional status of patients’ major organs. To overcome the inconvenience of invasive operations, molecular imaging has emerged as a noninvasive method to detect FGFR expression in tumors at the cellular or subcellular level ([23]–[25]), which are different from traditional anatomic imaging. […].

[2] = target: T1, FGFR1; test: saturation binding assay on RT-112 cells (radioligand)

Row | Molecule | IC50 [1] [nM] | Kd [2] [nM]
3 | AZD4547 | < 1 | –
4 | {NOTA-PEG2′}-KAEWKSLGEEAWHSK (also: Al18F complexed by NOTA) [[18F]F-FGFR1 peptide (NOTA-PEG2-KAEWKSLGEEAWHSK)] | – | 190
